By IC50 is commonly meant the concentration at which inhibition is half-maximal.

SMILES strings stand for the structures. Where two headings read alike, the source gives them in different places.

Results on three compounds are retold here after PMC8227285, “Functional Characterization of the Dopaminergic Psychostimulant Sydnocarb as an Allosteric Modulator of the Human Dopamine Transporter” (Biomedicines, 2021).

For experiment [1], the target named is T1, Y156F-DAT (Homo sapiens, UniProt Q01959, Y156F).
T1 construct: expressed in transfected cells; host or cells: COS-7
T1 sequence (Q01959 whole entry Y156F): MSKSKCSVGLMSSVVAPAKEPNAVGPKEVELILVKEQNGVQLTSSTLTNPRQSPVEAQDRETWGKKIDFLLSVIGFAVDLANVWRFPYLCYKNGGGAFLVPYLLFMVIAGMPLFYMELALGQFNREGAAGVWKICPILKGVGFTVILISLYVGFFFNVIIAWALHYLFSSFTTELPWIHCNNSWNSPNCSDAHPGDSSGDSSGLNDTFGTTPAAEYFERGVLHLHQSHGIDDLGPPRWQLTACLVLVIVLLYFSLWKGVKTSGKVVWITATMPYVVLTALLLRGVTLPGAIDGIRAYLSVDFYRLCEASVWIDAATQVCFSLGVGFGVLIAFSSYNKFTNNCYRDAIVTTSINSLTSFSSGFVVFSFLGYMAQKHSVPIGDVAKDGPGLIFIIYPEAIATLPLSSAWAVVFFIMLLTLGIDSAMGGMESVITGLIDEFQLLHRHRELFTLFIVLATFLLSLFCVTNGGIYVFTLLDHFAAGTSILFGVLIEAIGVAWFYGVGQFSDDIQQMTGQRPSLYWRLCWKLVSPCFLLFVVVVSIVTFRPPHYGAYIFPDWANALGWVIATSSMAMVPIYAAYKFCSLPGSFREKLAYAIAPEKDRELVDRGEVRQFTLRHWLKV
As to conditions: cited from earlier work.

In experiment [2] the target is T2, Y335A-DAT (Homo sapiens, UniProt Q01959, Y335A).
T2 construct: expressed in transfected cells; host or cells: COS-7
T2 sequence (Q01959 whole entry Y335A): as the sequence (Q01959 whole entry Y156F) above, with F156Y, Y335A counted along it
As to conditions: cited from earlier work.

The next experiment addresses T3, DAT-XC/W84C mutant (Homo sapiens, UniProt Q01959, C306A/W84C).
T3 construct: expressed in transfected cells; host or cells: HEK-293
T3 sequence (Q01959 1-620 W84C/C306A): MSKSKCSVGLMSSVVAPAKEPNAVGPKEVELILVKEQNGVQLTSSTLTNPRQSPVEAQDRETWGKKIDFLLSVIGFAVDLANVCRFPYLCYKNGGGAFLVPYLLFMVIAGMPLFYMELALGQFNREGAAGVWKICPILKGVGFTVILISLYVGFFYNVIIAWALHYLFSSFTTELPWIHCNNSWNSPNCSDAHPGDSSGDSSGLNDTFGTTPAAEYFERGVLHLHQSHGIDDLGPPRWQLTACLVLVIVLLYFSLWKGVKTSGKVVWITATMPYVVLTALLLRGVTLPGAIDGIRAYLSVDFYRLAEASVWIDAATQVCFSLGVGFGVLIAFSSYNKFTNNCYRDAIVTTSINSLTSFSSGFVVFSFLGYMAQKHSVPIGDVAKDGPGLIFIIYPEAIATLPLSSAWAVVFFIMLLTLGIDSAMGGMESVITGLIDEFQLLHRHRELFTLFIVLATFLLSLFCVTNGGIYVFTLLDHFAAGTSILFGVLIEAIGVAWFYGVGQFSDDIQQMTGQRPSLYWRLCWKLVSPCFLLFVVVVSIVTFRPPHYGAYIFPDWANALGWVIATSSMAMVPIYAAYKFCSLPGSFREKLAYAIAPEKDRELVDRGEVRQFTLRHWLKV
The experiment in a line: Substituted cysteine scanning (SCAM) MTSEA-biotin biotinylation in HEK-293 cells. The format is cell-based.

The next experiment deals with T4, hNET (Homo sapiens, UniProt P23975).
T4 construct: expressed in transfected cells; host or cells: COS-7
T4 sequence (P23975 whole entry): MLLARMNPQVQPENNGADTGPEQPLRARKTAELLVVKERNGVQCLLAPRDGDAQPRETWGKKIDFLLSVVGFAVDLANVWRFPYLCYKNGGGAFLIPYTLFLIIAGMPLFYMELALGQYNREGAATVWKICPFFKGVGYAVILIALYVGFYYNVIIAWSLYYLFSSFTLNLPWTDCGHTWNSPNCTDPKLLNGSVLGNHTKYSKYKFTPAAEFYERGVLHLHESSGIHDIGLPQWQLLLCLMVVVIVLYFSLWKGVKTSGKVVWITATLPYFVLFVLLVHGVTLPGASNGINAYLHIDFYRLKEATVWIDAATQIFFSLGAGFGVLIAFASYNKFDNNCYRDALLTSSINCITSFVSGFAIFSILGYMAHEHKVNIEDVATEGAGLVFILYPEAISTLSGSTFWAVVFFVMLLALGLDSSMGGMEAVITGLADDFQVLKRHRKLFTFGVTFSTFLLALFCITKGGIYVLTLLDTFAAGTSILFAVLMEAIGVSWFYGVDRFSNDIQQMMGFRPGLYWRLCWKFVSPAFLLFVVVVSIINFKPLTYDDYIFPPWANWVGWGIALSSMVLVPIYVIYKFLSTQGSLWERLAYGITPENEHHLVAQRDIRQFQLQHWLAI
The experiment in a line: Radioactive neurotransmitter transport inhibition assay in transiently transfected COS-7 cells. As to conditions: hNET transiently transfected COS-7 cells; mean ± SEM, three independent experiments (Figure 1A). The experiment is classed as cell-based. The method, then: (§1) Transiently transfected COS-7 cells (expressing hDAT, hNET, or hSERT) were plated in 96-well plates. Uptake experiments were performed 2 days later. The media was removed, and the cells were washed with PBS-CM. Following washing, the cells were incubated for 10 min with various concentrations of sydnocarb, and the uptake was initiated by adding [^3H]-dopamine to a final concentration of 25 nM. The uptake was allowed to continue for 10 min at room temperature and was terminated by washing twice with PBS-CM. The cells were solubilized in a scintillation cocktail and counted on a microplate scintillation and luminescence counter (PerkinElmer, Waltham, MA, USA). Data were fitted to a Hill equation by a nonlinear regression analysis to obtain the IC50 values.

The target of the next experiment is T5, hSERT (Homo sapiens, UniProt P31645).
T5 construct: expressed in transfected cells; host or cells: COS-7
T5 sequence (P31645 whole entry): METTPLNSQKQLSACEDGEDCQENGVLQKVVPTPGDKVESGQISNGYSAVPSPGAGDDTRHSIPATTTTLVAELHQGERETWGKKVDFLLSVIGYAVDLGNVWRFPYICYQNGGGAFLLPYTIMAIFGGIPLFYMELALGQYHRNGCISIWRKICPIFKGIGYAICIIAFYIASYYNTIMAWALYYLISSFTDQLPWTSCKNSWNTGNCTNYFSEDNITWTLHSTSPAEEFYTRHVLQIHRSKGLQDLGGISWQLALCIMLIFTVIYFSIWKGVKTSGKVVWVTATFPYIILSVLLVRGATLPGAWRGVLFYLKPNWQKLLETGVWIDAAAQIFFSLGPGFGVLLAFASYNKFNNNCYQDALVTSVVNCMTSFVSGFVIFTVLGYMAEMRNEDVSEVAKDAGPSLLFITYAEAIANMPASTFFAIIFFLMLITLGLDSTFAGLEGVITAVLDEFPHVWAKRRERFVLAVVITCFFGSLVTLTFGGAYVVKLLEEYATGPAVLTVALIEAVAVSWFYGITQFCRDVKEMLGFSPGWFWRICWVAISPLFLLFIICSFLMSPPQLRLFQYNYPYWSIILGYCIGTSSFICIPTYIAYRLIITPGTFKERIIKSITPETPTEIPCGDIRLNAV
Described as above. The format is cell-based. As to conditions: hSERT transiently transfected COS-7 cells, mean ± SEM, three independent experiments (Figure 1A). The method, then: as §1

A further experiment addresses T6, hDAT (Homo sapiens, UniProt Q01959).
T6 construct: expressed in transfected cells; host or cells: COS-7
The experiment in a line: [3H]-dopamine transport inhibition assay in transiently transfected COS-7 cells. The experiment is classed as cell-based. As to conditions: for IC50: mean ± SEM. The method, then:
as §1

Experiment [3] concerns the target T1, Y156F-DAT. The experiment in a line: DA uptake inhibition assay in COS-7 cells expressing DAT mutant. The experiment is classed as cell-based. The method, then:
as §1

Experiment [4] concerns the target T2, Y335A-DAT. The experiment is described as above. The format is cell-based. The method, then: as §1
The next experiment concerns the target T7, wild-type DAT (Homo sapiens, UniProt Q01959).
T7 construct: expressed in transfected cells; host or cells: COS-7
The experiment in a line: [3H]-DA uptake kinetic assay in COS-7 cells (Michaelis-Menten). The experiment is classed as cell-based. As to conditions: vehicle 634.8 ± 84.62, four independent experiments. The method, then: Transport assays were performed as described previously. Briefly, COS-7 cells were transfected and plated in 96-well plates. Uptake experiments were performed 2 days after transfection. The media was removed, and the cells were washed with PBS (137-mM NaCl, 2.7-mM KCl, 4.3-mM Na2HPO4, and 1.4-mM KH2PO4, pH 7.4) containing 0.1-mM CaCl2, 1-mM MgCl2, […], and […] (PBSCM). Following washing, a constant concentration of radiolabeled substrate (50-nM [^3H]-DA) and increasing concentrations of unlabeled substrate (0.05–100-μM DA) were added, and the uptake was allowed to continue for 10 min at room temperature. The uptake was terminated by washing twice with PBS-CM. The cells were solubilized in scintillation cocktail and counted on a microplate scintillation and luminescence counter (PerkinElmer, Waltham, MA, USA). Background was obtained from non-transfected cells and subtracted. Data were fitted to a Michaelis−Menten equation using nonlinear regression to obtain Km and Vmax.

T6 sequence (Q01959 whole entry): as the sequence (Q01959 whole entry Y156F) above, with F156Y counted along it
T7 sequence (Q01959 whole entry): as the sequence (Q01959 whole entry Y156F) above, with F156Y counted along it
Description for DAT-XC/W84C mutant: Briefly, HEK-293 cells were transiently transfected and cultured to confluency in a 6-well plate. The cells were washed with ice-cold PBS-CM (pH 7.4) twice and incubated at 4 °C with vehicle or sydnocarb (0.5 or 2 μM) for 10 min, followed by the addition of MTSEA-biotin (125 μM, final concentration). After 10-min incubation at 4 °C, the biotinylation was quenched by aspirating the liquid and washing the cells with 1-mM DTT in PBS-CM, followed by a final wash with PBS-CM only. The cells were lysed in 600 μL of TNE lysis buffer (pH 7.4) containing protease inhibitors (100×) for 40 min at 4 °C. The cells were collected and centrifuged at 12,000× g for 10 min at 4 °C. The supernatant was collected, of which 30 μL was mixed with DTT (0.5 M, 5 μL) and LDS Nu-page (15 μL) for the total lysate sample, and saved at −20 °C. Four hundred and fifty microliters of the supernatant were incubated overnight at 4 °C with 50 μL of 50% slurry of high-capacity neutravidin agarose resin. The beads containing “biotinylated” proteins were washed with ice-cold TNE lysis three times, followed by a final wash with PBS-CM, and then mixed with LDL Nu-page (15 μL), DTT (0.5 M, 5 μL), and water (30 μL). […] Densities of he DAT bands were analyzed with an Odyssey imaging system and associated ImageStudio software (LI-COR, Lincoln, NE, USA).

In the case of `CCCCN1[C@@H]2CC[C@H]1CC(OC(c1ccc(F)cc1)c1ccc(F)cc1)C2` (stereo partly shown) [JHW-007], the “effect of Y156F mutation on potency” value on Y156F-DAT [1] is reported as “significantly reduced”.

For `COC(=O)[C@H]1[C@@H](OC(=O)c2ccccc2)C[C@@H]2CC[C@H]1N2C` [cocaine], the “effect of Y335A mutation on potency” value on Y335A-DAT [2] was “markedly impaired”. For the same compound, on Y156F-DAT [1], the “effect of Y156F mutation on binding affinities” value is given as “unaffected”. On DAT-XC/W84C mutant (coincubation with 100 µM cocaine (negative control)), the “labeling of W84C with MTSEA-biotin” value is given as “not affected”.

Take `CC(Cc1ccccc1)[n+]1cc([N-]C(=O)Nc2ccccc2)on1` (stereo not shown) [sydnocarb]: the IC50 at hNET came out at 34.9 ± 14.1 µM; on hSERT, 495 ± 17 µM; at hSERT (listed as Sydnocarb) it was 495 ± 17 µM; on hDAT (WT-DAT-transfected COS-7 cells, mutant comparison (Figure 6), three independent experiments, read-out: IC50, DA uptake inhibition), 0.439 ± 0.135 µM; at hDAT (hDAT transiently transfected COS-7 cells, three independent experiments (Figure 1A), listed as Sydnocarb, read-out: IC50, transport inhibition), 0.493 ± 0.14 µM; at hDAT (hDAT transiently transfected COS-7 cells, three independent experiments (Figure 1A), read-out: IC50, transport inhibition), 0.49 ± 0.14 µM. The IC50 against Y156F-DAT [3] (Y156F-DAT-transfected COS-7 cells, mean ± SEM, three independent experiments) worked out at 0.262 ± 0.118 µM; against Y335A-DAT [4] (Y335A-DAT-transfected COS-7 cells, mean ± SEM, three independent experiments), 1.42 ± 0.201 µM. The “fold more potent towards hDAT than towards hNET” value at hDAT (from dose-response IC50 values) is 70 fold. Besides, the “fold more potent towards hDAT than towards hSERT” value at hDAT (from dose-response IC50 values) amounted to 1000 fold. The “biotinylation of W84C by MTSEA-biotin” value on DAT-XC/W84C mutant (coincubation with 1 µM sydnocarb, four independent experiments) is reported as “significantly decreased”. The “change in potency, Y156F-DAT versus WT-DAT” value at Y156F-DAT [3] (COS-7 cells) is “no significant changes”. Moreover, the “reduction of potency for Y335A-DAT compared with WT-DAT” value at Y335A-DAT [4] (COS-7 cells) is 3.5 fold. The “Vmax of DAT-mediated [3H]-DA uptake” value on wild-type DAT (in the presence of 0.5 µM Sydnocarb) was found to be 455.6 ± 89.6 femtomole/min/well; at wild-type DAT (in the presence of 2.0 µM Sydnocarb), 195 ± 80.7 femtomole/min/well.
